Assays:
[1] = tested on: blackgrass; experiment: Test B pre/postemergence blackgrass; assay type: in vivo, Alopecurus myosuroides
Procedure, shortened: (§1)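 Response is a visual 0-to-10 score relative to untreated plants, where 0 means no effect and 10 means complete control, taken twelve to sixteen days after application. Treatments went onto soil at planting and onto foliage of 1- to 4-leaf plants, using a surfactant-containing non-phytotoxic solvent.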

[2] = tested on: purple nutsedge; experiment: Test B pre/postemergence purple nutsedge; assay type: in vivo, Cyperus rotundus
Procedure, shortened: as §1

[3] = tested on: sugar beet; experiment: Test B pre/postemergence sugar beet; assay type: in vivo, Beta vulgaris
Procedure, shortened: as §1

[4] = tested on: bamyardgrass; experiment: Test B flood test barnyardgrass; assay type: in vivo, Echinochloa crus-galli
Procedure, shortened: (§2)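 Plants were grown to the 2-leaf stage before treatment with test chemical, then held in a greenhouse for twelve to sixteen days. Injury was visually rated against untreated controls on a 0–10 scale, where 0 is no effect and 10 is complete control.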

[5] = tested on: rape; experiment: Test B pre/postemergence rape; assay type: in vivo, Brassica napus
Procedure, shortened: as §1

[6] = tested on: velvetleaf; experiment: Test B pre/postemergence velvetleaf; assay type: in vivo, Abutilon theophrasti
Procedure, shortened: as §1

[7] = tested on: wild oat; experiment: Test B pre/postemergence wild oat; assay type: in vivo, Avena fatua
Procedure, shortened: as §1

[8] = tested on: bedstraw; experiment: Test B pre/postemergence bedstraw; assay type: in vivo, Galium aparine
Procedure, shortened: as §1

[9] = tested on: smallflower flatsedge; experiment: Test B flood test smallflower flatsedge; assay type: in vivo, Cyperus difformis
Procedure, shortened: as §2

[10] = tested on: giant foxtail; experiment: Test B pre/postemergence giant foxtail; assay type: in vivo, Setaria faberii
Procedure, shortened: as §1

[11] = tested on: rice; experiment: Test B flood test rice; assay type: in vivo, Oryza sativa
Procedure, shortened: as §2

[12] = tested on: soybean; experiment: Test B pre/postemergence soybean; assay type: in vivo, Glycine max
Procedure, shortened: as §1

[13] = tested on: wheat; experiment: Test B pre/postemergence wheat; assay type: in vivo, Triticum aestivum
Procedure, shortened: as §1

[14] = tested on: duck salad; experiment: Test B flood test duck salad; assay type: in vivo, Heteranthera limosa
Procedure, shortened: as §2

[15] = tested on: morningglory; experiment: Test B pre/postemergence morningglory; assay type: in vivo, Ipomoea hederacea
Procedure, shortened: as §1

[16] = tested on: pigweed; experiment: Test B pre/postemergence pigweed; assay type: in vivo, Amaranthus retroflexus
Procedure, shortened: as §1

[17] = Postemergence, Rate 62 g/ha, scale 0 to 10, 0 is no effect, 10 is complete control
[18] = Postemergence, Rate 125 g/ha, scale of 0 to 10 where 0 is no effect and 10 is complete control
[19] = Postemergence, Rate 250 g/ha, scale of 0 to 10, 0 is no effect, 10 is complete control
[20] = Postemergence, Rate 500 g/ha, scale of 0 to 10 where 0 is no effect and 10 is complete control
[21] = Preemergence, Rate 62 g/ha, scale 0 to 10 (0 no effect, 10 complete control)
[22] = Preemergence, Rate 125 g/ha, scale of 0 to 10 where 0 is no effect and 10 is complete control
[23] = Preemergence, Rate 500 g/ha, scale of 0 to 10 where 0 is no effect and 10 is complete control
[24] = Rate 62 g/ha, flood test species, Pre-emergence, visual evaluation after twelve to sixteen days
[25] = Rate 125 g/ha, under heading Pre-emergence, flood test species, visual evaluation after twelve to sixteen days
[26] = Rate 250 g/ha, Pre-emergence (flood test species), scale 0 to 10, 0 is no effect, 10 is complete control
[27] = Rate 500 g/ha, Pre-emergence section of Table B, 0 to 10 scale (0 no effect, 10 complete control)

## CC(C)N(C(=O)n1oc(=O)n(CC2=NOCCC2)c1=O)c1ccc(F)cc1F [Compound 602]
[1]; [17]
  Plant response rating, Blackgrass: 4
[1]; [18]
  Plant response rating, Blackgrass: 6
[1]; [19]
  Blackgrass plant response rating: 8
[1]; [20]
  Plant response rating, Blackgrass: 9
[1]; [21]
  Blackgrass plant response rating: 0
[1]; [22]
  Blackgrass plant response rating: 4
[1]; Preemergence, Rate 250 g/ha
  Blackgrass plant response rating (0 to 10 scale): 6
[1]; [23]
  Blackgrass plant response rating: 9
[2]; [17]
  Plant response rating, Nutsedge: 0
[2]; [18]
  Plant response rating, Nutsedge: 0
[2]; [19]
  Nutsedge plant response rating: 0
[2]; [20]
  Plant response rating, Nutsedge: 0
[2]; [21]
  Nutsedge plant response rating: 0
[2]; [22]
  Nutsedge plant response rating: 0
[2]; [23]
  Plant response rating, Nutsedge: 0
[3]; [17]
  Plant response rating, Sugarbeets: 0
[3]; [18]
  Plant response rating, Sugarbeets: 0
[3]; [19]
  Sugarbeets plant response rating: 0
[3]; [20]
  Plant response rating, Sugarbeets: 0
[3]; [21]
  Sugarbeets plant response rating: 0
[3]; [22]
  Sugarbeets plant response rating: 2
[3]; [23]
  Plant response rating, Sugarbeets: 5
[4]; [24]
  Plant response rating, Barnyardgrass (0 to 10 scale, 0 is no effect, 10 is complete control): 0
[4]; [25]
  Barnyardgrass plant response rating (0 to 10 scale, 0 is no effect, 10 is complete control): 0
[4]; [26]
  Barnyardgrass plant response rating: 0
[4]; [27]
  Barnyardgrass plant response rating: 0
[5]; [17]
  Plant response rating, Rape: 0
[5]; [18]
  Plant response rating, Rape: 0
[5]; [19]
  Rape plant response rating: 0
[5]; [20]
  Plant response rating, Rape: 0
[5]; [21]
  Rape plant response rating: 0
[5]; [22]
  Rape plant response rating: 0
[5]; [23]
  Plant response rating, Rape: 3
[6]; [17]
  Plant response rating, Velvetleaf: 0
[6]; [18]
  Plant response rating, Velvetleaf: 0
[6]; [19]
  Velvetleaf plant response rating: 0
[6]; [20]
  Plant response rating, Velvetleaf: 0
[6]; [21]
  Velvetleaf plant response rating: 0
[6]; [22]
  Velvetleaf plant response rating: 6
[6]; [23]
  Plant response rating, Velvetleaf: 6
[7]; [17]
  Plant response rating, Wild oats: 0
[7]; [18]
  Plant response rating, Wild oats: 0
[7]; [19]
  Wild oats plant response rating: 0
[7]; [20]
  Plant response rating, Wild oats: 3
[7]; [21]
  Wild oats plant response rating: 0
[7]; [22]
  Wild oats plant response rating: 3
[7]; [23]
  Plant response rating, Wild oats: 8
[8]; [18]
  Plant response rating, Bedstraw: 3
[8]; [19]
  Bedstraw plant response rating: 3
[8]; [21]
  Bedstraw plant response rating: 0
[8]; [22]
  Bedstraw plant response rating: 0
[8]; Preemergence, Rate 250 g/ha
  Bedstraw plant response rating (0 to 10 scale): 0
[8]; [23]
  Bedstraw plant response rating: 0
[9]; [24]
  Plant response rating, S. Flatsedge (0 to 10 scale, 0 is no effect, 10 is complete control): 0
[9]; [25]
  S. Flatsedge plant response rating (0 to 10 scale, 0 is no effect, 10 is complete control): 0
[9]; [26]
  S. Flatsedge plant response rating: 0
[9]; [27]
  S. Flatsedge plant response rating: 0
[10]; [17]
  Plant response rating, Giant foxtail: 1
[10]; [18]
  Plant response rating, Giant foxtail: 8
[10]; [19]
  Giant foxtail plant response rating: 9
[10]; [20]
  Plant response rating, Giant foxtail: 9
[10]; [21]
  Giant foxtail plant response rating: 9
[10]; [22]
  Giant foxtail plant response rating: 9
[10]; [23]
  Plant response rating, Giant foxtail: 10
[11]; [24]
  Plant response rating, Rice (0 to 10 scale, 0 is no effect, 10 is complete control): 0
[11]; [25]
  Rice plant response rating (0 to 10 scale, 0 is no effect, 10 is complete control): 0
[11]; [26]
  Rice plant response rating: 0
[11]; [27]
  Rice plant response rating: 0
[12]; [17]
  Plant response rating, Soybean: 3
[12]; [18]
  Plant response rating, Soybean: 3
[12]; [19]
  Soybean plant response rating: 5
[12]; [20]
  Plant response rating, Soybean: 7
[12]; [22]
  Soybean plant response rating: 0
[12]; [23]
  Plant response rating, Soybean: 0
[13]; [17]
  Plant response rating, Wheat: 0
[13]; [18]
  Plant response rating, Wheat: 0
[13]; [19]
  Wheat plant response rating: 0
[13]; [20]
  Plant response rating, Wheat: 0
[13]; [21]
  Wheat plant response rating: 0
[13]; [22]
  Wheat plant response rating: 0
[13]; [23]
  Plant response rating, Wheat: 0
[14]; [24]
  Plant response rating, Ducksalad (0 to 10 scale, 0 is no effect, 10 is complete control): 0
[14]; [25]
  Ducksalad plant response rating (0 to 10 scale, 0 is no effect, 10 is complete control): 0
[14]; [26]
  Ducksalad plant response rating: 0
[14]; [27]
  Ducksalad plant response rating: 0
[15]; [17]
  Plant response rating, Morningglory: 0
[15]; [18]
  Plant response rating, Morningglory: 1
[15]; [19]
  Morningglory plant response rating: 2
[15]; [20]
  Plant response rating, Morningglory: 3
[15]; [21]
  Morningglory plant response rating: 0
[15]; [22]
  Morningglory plant response rating: 0
[15]; [23]
  Plant response rating, Morningglory: 0
[16]; [17]
  Plant response rating, Redroot pigweed: 2
[16]; [18]
  Plant response rating, Redroot pigweed: 2
[16]; [19]
  Redroot pigweed plant response rating: 3
[16]; [20]
  Plant response rating, Redroot pigweed: 6
[16]; [21]
  Redroot pigweed plant response rating: 2
[16]; [22]
  Redroot pigweed plant response rating: 7
[16]; [23]
  Plant response rating, Redroot pigweed: 8

From patent publication US6737383B1, “Herbicidal oxadiazolidines” (priority 1999, dated 2004)
